{
  "source": "PubChem BioAssay AID270",
  "about": "(DTP/NCI, 2004)",
  "test_system": "BDF1 mice, s.c. Lewis lung carcinoma, T/C %",
  "experiment": "NCI In Vivo Anticancer Drug Screen. Data for tumor model Lewis Lung Carcinoma (subcutaneous) in B6D2F1 (BDF1) mice",
  "experimental": "The antitumor activity of compounds was measured in mice bearing transplantable tumors. Survival or tumor size were measured and the results are expressed as the measurement made in the treated group (T) divided by the measurement made in the vehicle treated control group (C). The tumor model used in this assay is Lewis Lung Carcinoma (subcutaneous) in B6D2F1 (BDF1) mice",
  "note": "“And” between values parts separate entries of the source, which are not always exact repeats. Identical values can stand only once. Records with an inconclusive call do not appear.",
  "data": [
    {"smiles": "Nc1nncs1", "values": [
      {"measurement": "T/C", "setting": "endpoint: median survival time, dose: 6.25 mg/kg/injection, schedule: Q01DX009 (ip), vehicle: Klucel (hydroxypropylcellulose) (HPC), higher = longer survival", "result": "117 % of control and 122 % of control"}
    ]},
    {"smiles": "O=C1C2C3C=CC(C3)C2C(=O)N1c1nccs1", "note": "(configuration not stated)", "values": [
      {"measurement": "T/C", "setting": "endpoint: mean tumor weight, dose: 50.0 mg/kg/injection, schedule: Q01DX011 (ip), vehicle: carboxymethylcellulose (CMC), higher = larger tumour", "result": "113 % of control"},
      {"measurement": "T/C", "setting": "endpoint: mean tumor weight, dose: 100.0 mg/kg/injection, schedule: Q01DX011 (ip), vehicle: carboxymethylcellulose (CMC), higher = larger tumour", "result": "100 % of control"},
      {"measurement": "T/C", "setting": "endpoint: mean tumor weight, dose: 200.0 mg/kg/injection, schedule: Q01DX011 (ip), vehicle: carboxymethylcellulose (CMC), higher = larger tumour", "result": "45 % of control"}
    ]},
    {"smiles": "CNC1C(O)C(NC)C2OC3(O)C(=O)CC(C)OC3OC2C1O", "note": "(configuration not stated)", "values": [
      {"measurement": "T/C", "setting": "endpoint: median survival time, dose: 25.0 mg/kg/injection, schedule: Q01DX009 (ip), vehicle: saline, higher = longer survival", "result": "111 % of control"},
      {"measurement": "T/C", "setting": "endpoint: median survival time, dose: 50.0 mg/kg/injection, schedule: Q01DX009 (ip), vehicle: saline, higher = longer survival", "result": "96 % of control"},
      {"measurement": "T/C", "setting": "endpoint: median survival time, dose: 100.0 mg/kg/injection, schedule: Q01DX009 (ip), vehicle: saline, higher = longer survival", "result": "110 % of control"}
    ]},
    {"smiles": "O=NN(CCCl)C(=O)Nc1ccc2c3c(cccc13)-c1ccccc1-2", "values": [
      {"measurement": "T/C", "setting": "endpoint: median survival time, dose: 50.0 mg/kg/injection, schedule: Q01DX009 (ip), vehicle: Klucel (hydroxypropylcellulose) (HPC), higher = longer survival", "result": "100 % of control"},
      {"measurement": "T/C", "setting": "endpoint: median survival time, dose: 100.0 mg/kg/injection, schedule: Q01DX009 (ip), vehicle: Klucel (hydroxypropylcellulose) (HPC), higher = longer survival", "result": "97 % of control"},
      {"measurement": "T/C", "setting": "endpoint: median survival time, dose: 200.0 mg/kg/injection, schedule: Q01DX009 (ip), vehicle: Klucel (hydroxypropylcellulose) (HPC), higher = longer survival", "result": "88 % of control"}
    ]},
    {"smiles": "O=S1(=O)CCCO1", "values": [
      {"measurement": "T/C", "setting": "endpoint: mean tumor weight, dose: 10.0 mg/kg/injection, schedule: Q01DX011 (ip), vehicle: saline, higher = larger tumour", "result": "109 % of control"},
      {"measurement": "T/C", "setting": "endpoint: mean tumor weight, dose: 20.0 mg/kg/injection, schedule: Q01DX011 (ip), vehicle: saline, higher = larger tumour", "result": "102 % of control"},
      {"measurement": "T/C", "setting": "endpoint: mean tumor weight, dose: 40.0 mg/kg/injection, schedule: Q01DX011 (ip), vehicle: saline, higher = larger tumour", "result": "78 % of control"}
    ]},
    {"smiles": "CCOC(=O)C1CCC(NC(=O)N(CCCl)N=O)CC1", "note": "(configuration not stated)", "values": [
      {"measurement": "T/C", "setting": "endpoint: median survival time, dose: 8.6 mg/kg/injection, schedule: Q04DX004 (ip), vehicle: gum acacia, higher = longer survival", "result": "155 % of control"},
      {"measurement": "T/C", "setting": "endpoint: median survival time, dose: 13.0 mg/kg/injection, schedule: Q04DX004 (ip), vehicle: gum acacia, higher = longer survival", "result": "155 % of control and 168 % of control and 204 % of control"},
      {"measurement": "T/C", "setting": "endpoint: median survival time, dose: 15.0 mg/kg/injection, schedule: Q07DX002 (ip), vehicle: gum acacia, higher = longer survival", "result": "413 % of control"},
      {"measurement": "T/C", "setting": "endpoint: median survival time, dose: 18.0 mg/kg/injection, schedule: Q04DX004 (ip), vehicle: gum acacia, higher = longer survival", "result": "176 % of control and 252 % of control"},
      {"measurement": "T/C", "setting": "endpoint: median survival time, dose: 20.0 mg/kg/injection, schedule: Q04DX004 (ip), vehicle: gum acacia, higher = longer survival", "result": "181 % of control"},
      {"measurement": "T/C", "setting": "endpoint: median survival time, dose: 21.0 mg/kg/injection, schedule: Q07DX002 (ip), vehicle: gum acacia, higher = longer survival", "result": "413 % of control"},
      {"measurement": "T/C", "setting": "endpoint: median survival time, dose: 22.0 mg/kg/injection, schedule: Q07DX002 (ip), vehicle: gum acacia, higher = longer survival", "result": "191 % of control"},
      {"measurement": "T/C", "setting": "endpoint: median survival time, dose: 24.0 mg/kg/injection, schedule: Q07DX002 (ip), vehicle: gum acacia, higher = longer survival", "result": "232 % of control and 245 % of control"},
      {"measurement": "T/C", "setting": "endpoint: median survival time, dose: 28.0 mg/kg/injection, schedule: Q07DX002 (ip), vehicle: gum acacia, higher = longer survival", "result": "184 % of control"},
      {"measurement": "T/C", "setting": "endpoint: median survival time, dose: 30.0 mg/kg/injection, schedule: Q01DX001 (ip), vehicle: gum acacia, higher = longer survival", "result": "157 % of control and 166 % of control and 187 % of control"},
      {"measurement": "T/C", "setting": "endpoint: median survival time, dose: 30.0 mg/kg/injection, schedule: Q04DX004 (ip), vehicle: gum acacia, higher = longer survival", "result": "70 % of control"},
      {"measurement": "T/C", "setting": "endpoint: median survival time, dose: 33.0 mg/kg/injection, schedule: Q07DX002 (ip), vehicle: gum acacia, higher = longer survival", "result": "88 % of control and 90 % of control"},
      {"measurement": "T/C", "setting": "endpoint: median tumor weight (est.), dose: 15.0 mg/kg/injection, schedule: Q01DX001 (ip), vehicle: gum acacia, higher = larger tumour", "result": "16 % of control"},
      {"measurement": "T/C", "setting": "endpoint: median tumor weight (est.), dose: 29.0 mg/kg/injection, schedule: Q01DX001 (ip), vehicle: gum acacia, higher = larger tumour", "result": "8 % of control"}
    ]},
    {"smiles": "CN(C)c1ccc(/C=C\\c2ccnc3ccccc23)cc1", "values": [
      {"measurement": "T/C", "setting": "endpoint: mean tumor weight, dose: 1.25 mg/kg/injection, schedule: Q01DX011 (ip), vehicle: other, higher = larger tumour", "result": "103 % of control"},
      {"measurement": "T/C", "setting": "endpoint: mean tumor weight, dose: 2.5 mg/kg/injection, schedule: Q01DX011 (ip), vehicle: other, higher = larger tumour", "result": "84 % of control"},
      {"measurement": "T/C", "setting": "endpoint: mean tumor weight, dose: 5.0 mg/kg/injection, schedule: Q01DX011 (ip), vehicle: other, higher = larger tumour", "result": "75 % of control"},
      {"measurement": "T/C", "setting": "endpoint: mean tumor weight, dose: 10.0 mg/kg/injection, schedule: Q01DX011 (ip), vehicle: other, higher = larger tumour", "result": "71 % of control and 83 % of control"},
      {"measurement": "T/C", "setting": "endpoint: mean tumor weight, dose: 20.0 mg/kg/injection, schedule: Q01DX011 (ip), vehicle: other, higher = larger tumour", "result": "54 % of control and 68 % of control"}
    ]}
  ]
}
